Assay [1] has as its target human P450scc (SEQ ID NO: 2), natural three-component system co-expressed with adrenodoxin and adrenodoxin reductase (Homo sapiens, UniProt P05108). Particulars: substrate 0.5 to 5.0 μM, 24 h incubation, triply transfected COS-1 cells. As to the method:
(§1) Cells were maintained at 37° C. in 5% CO2.
(§2) All samples were assayed in triplicate.

The target in assay [2] is fusion enzyme F2, H3N-P450scc-AdRed-Adx-COOH (human P450scc, adrenodoxin reductase 18- form, adrenodoxin) (Homo sapiens, UniProt P05108+P22570). To be noted: substrate 0.5 to 5.0 μM, 24 h incubation, F2-transfected COS-1 cells. As to the method: as §1, §2
Sequence of fusion enzyme F2, H3N-P450scc-AdRed-Adx-COOH (human P450scc, adrenodoxin reductase 18- form, adrenodoxin) (P05108+P22570 fused): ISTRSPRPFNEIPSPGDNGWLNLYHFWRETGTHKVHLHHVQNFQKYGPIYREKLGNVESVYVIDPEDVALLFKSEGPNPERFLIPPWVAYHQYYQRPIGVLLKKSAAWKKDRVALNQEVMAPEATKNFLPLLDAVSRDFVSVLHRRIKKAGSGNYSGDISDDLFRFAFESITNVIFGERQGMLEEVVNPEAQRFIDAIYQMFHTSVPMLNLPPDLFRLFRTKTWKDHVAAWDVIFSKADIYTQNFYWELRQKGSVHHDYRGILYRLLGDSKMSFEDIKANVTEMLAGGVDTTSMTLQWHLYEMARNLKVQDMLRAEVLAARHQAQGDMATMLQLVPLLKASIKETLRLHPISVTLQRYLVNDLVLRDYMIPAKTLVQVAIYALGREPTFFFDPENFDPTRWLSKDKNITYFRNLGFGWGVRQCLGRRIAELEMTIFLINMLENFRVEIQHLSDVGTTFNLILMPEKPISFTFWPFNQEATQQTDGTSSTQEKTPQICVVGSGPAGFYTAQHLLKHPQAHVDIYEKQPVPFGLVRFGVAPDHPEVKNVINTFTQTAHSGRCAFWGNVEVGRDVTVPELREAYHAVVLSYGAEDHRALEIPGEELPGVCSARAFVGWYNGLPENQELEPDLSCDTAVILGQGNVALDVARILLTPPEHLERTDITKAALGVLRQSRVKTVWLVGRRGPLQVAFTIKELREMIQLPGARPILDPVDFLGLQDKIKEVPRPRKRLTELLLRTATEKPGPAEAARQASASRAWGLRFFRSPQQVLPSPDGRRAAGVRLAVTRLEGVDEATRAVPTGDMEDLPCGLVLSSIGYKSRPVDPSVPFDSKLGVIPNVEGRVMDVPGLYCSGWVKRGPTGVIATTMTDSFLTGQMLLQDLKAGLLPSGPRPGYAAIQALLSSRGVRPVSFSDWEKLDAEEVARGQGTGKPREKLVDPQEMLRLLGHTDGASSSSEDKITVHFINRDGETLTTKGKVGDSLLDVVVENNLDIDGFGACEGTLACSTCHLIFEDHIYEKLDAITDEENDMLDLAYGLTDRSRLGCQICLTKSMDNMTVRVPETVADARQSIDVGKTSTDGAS
A further assay concerns the target T1, cytochrome P450scc (Bos taurus, UniProt P00189).
T1 sequence (P00189 40-520): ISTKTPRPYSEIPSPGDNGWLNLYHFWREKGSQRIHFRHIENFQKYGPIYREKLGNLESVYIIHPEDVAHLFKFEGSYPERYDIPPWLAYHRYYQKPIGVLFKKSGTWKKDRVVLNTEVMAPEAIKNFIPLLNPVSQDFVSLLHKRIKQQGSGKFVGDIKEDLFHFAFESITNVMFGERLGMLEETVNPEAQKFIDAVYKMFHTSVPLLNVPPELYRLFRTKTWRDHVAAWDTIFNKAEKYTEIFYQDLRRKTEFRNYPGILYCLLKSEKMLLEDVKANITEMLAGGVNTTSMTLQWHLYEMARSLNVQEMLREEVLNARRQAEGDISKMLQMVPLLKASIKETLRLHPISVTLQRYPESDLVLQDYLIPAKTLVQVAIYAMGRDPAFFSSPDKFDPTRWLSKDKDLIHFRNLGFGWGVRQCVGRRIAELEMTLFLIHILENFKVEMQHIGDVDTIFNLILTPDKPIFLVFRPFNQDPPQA
Particulars: Morisaki et al 1980; cited from earlier work.

Sequence of human P450scc (SEQ ID NO: 2), natural three-component system co-expressed with adrenodoxin and adrenodoxin reductase (P05108 40-521 I301M): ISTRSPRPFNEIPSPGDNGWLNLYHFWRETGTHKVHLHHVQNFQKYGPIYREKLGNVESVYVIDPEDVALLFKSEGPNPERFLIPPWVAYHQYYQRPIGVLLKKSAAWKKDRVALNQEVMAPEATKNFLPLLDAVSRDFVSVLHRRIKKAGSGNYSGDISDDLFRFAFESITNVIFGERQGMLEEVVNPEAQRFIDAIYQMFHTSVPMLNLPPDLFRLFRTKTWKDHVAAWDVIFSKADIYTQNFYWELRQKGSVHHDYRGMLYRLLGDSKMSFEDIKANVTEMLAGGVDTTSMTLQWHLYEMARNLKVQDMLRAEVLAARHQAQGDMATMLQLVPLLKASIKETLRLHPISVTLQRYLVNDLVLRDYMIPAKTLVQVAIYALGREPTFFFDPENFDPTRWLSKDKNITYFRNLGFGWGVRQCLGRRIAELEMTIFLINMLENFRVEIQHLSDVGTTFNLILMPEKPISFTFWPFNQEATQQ

As a reminder, the Km is the concentration of substrate that gives half-maximal velocity. For `CC(C)CC[C@@H](O)[C@@H](C)[C@H]1CC[C@H]2[C@@H]3CC=C4C[C@@H](O)CC[C@]4(C)[C@H]3CC[C@]12C` [22R-hydroxycholesterol], the Vmax in assay [1] was 1.7 ng pregnenolone/ml of culture medium/24 h; in assay [2] (pregnenolone in culture medium) it was 9.1 ng/ml/24 h. Besides, the Km in assay [1] (dose-response data) was 0.37 µM; in assay [2], 2.85 µM.

As for `CC(C)CCC[C@@H](C)[C@H]1CC[C@H]2[C@@H]3CC=C4C[C@@H](O)CC[C@]4(C)[C@H]3CC[C@]12C` [cholesterol], the “turnover (cholesterol converted per enzyme)” value on cytochrome P450scc is on record as “about 1 mole of cholesterol per mole of enzyme per second”.

The values above are taken from patent US5939318A, “Cholesterol disposal fusion enzymes” (Regents of the University of California, priority 1996, dated 1999).
